Measured values as given in paper PMC7688068 (Journal of medicinal chemistry, 2020).

Experiments:
Raw264.7 cells = format: in vitro ADME, mouse; settings: for cellular permeability compared to positive control compound 9 of ref 55: 20 μM input, 2 h, 37 °C; for cellular uptake (cellular bioavailability): LC-MS-based method
[1] = test system: mouse embryonic fibroblasts (MEF cells); settings: 72 h, up to 25 μM
mPTPB [2] = molecular target: T1, mPTPB (Mycobacterium tuberculosis, UniProt I6WXK4); format: biochemical
[3] = test system: Raw 264.7 vector cells (pcN-HA); assay: signaling in vector control cells, western blot, IFN-γ stimulated; format: cell-based, mouse; settings: IFN-γ stimulation
mPTPB [4] = molecular target: T1, mPTPB; format: biochemical; remark: listed apart in the source

T1 sequence (I6WXK4 whole entry, looked up): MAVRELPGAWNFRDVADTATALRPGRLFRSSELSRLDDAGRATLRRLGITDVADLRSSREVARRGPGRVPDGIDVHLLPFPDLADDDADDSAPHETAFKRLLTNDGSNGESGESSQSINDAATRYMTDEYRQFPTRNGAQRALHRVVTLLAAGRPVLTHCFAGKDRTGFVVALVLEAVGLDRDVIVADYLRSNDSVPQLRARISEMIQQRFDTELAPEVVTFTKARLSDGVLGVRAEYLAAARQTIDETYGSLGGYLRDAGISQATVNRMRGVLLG

Structure (SMILES): O=C(O)C(=O)Nc1ccc(C#Cc2ccc(C(F)(F)F)cc2)cc1 [Compound 4k, 2-Oxo-2-((4-((4-(trifluoromethyl)phenyl)ethynyl)phenyl)amino)acetic Acid]
- cellular permeability compared to positive control compound 9 of ref 55 (Raw264.7 cells): better cellular permeability
- cellular uptake (cellular bioavailability) (Raw264.7 cells): can easily be taken up

Structure (SMILES): CC(C)(C)OC(=O)Nc1ccc(C#Cc2ccc(NC(=O)C(=O)O)cc2)cc1 [Compound 4s, 2-((4-((4-((tert-Butoxycarbonyl)amino)phenyl)ethynyl)phenyl)amino)-2-oxoacetic Acid]
- cytotoxicity (cell viability, MTT) [1]: did not exhibit any significant cytotoxicity
- cellular permeability compared to positive control compound 9 of ref 55 (Raw264.7 cells): better cellular permeability

Structure (SMILES): O=C(O)C(=O)Nc1ccc(C#Cc2ccc(C(F)(F)F)cc2Cl)cc1 [Compound 4t, 2-((4-((2-Chloro-4-(trifluoromethyl)phenyl)ethynyl)phenyl)amino)-2-oxoacetic Acid]
- mode of mPTPB inhibition (mPTPB [2]): reversible and competitive inhibitor
- cytotoxicity (cell viability, MTT) [1]: did not exhibit any significant cytotoxicity
- cellular permeability compared to positive control compound 9 of ref 55 (Raw264.7 cells): better cellular permeability
- cellular uptake (cellular bioavailability) (Raw264.7 cells): can easily be taken up
- pAKT, pERK1/2 and pp38 levels compared to vehicle-treated cells [3]: no significant change

Structure (SMILES): O=C(O)C(=O)Nc1ccc(C#Cc2ccc(C(F)(F)F)cc2Br)cc1 [Compound 4u, 2-((4-((2-Bromo-4-(trifluoromethyl)phenyl)ethynyl)phenyl)amino)-2-oxoacetic Acid]
- cellular permeability compared to positive control compound 9 of ref 55 (Raw264.7 cells): better cellular permeability
- cellular uptake (cellular bioavailability) (Raw264.7 cells): can easily be taken up

Structure (SMILES): O=C(O)C(=O)Nc1ccc(C#Cc2ccc(C(F)(F)F)cc2F)cc1 [Compound 4v, 2-((4-((2-Fluoro-4-(trifluoromethyl)phenyl)ethynyl)phenyl)amino)-2-oxoacetic Acid]
- cellular uptake (cellular bioavailability) (Raw264.7 cells): can easily be taken up

Structure (SMILES): O=C(O)C(=O)Nc1ccc(/C=C\c2ccccc2)cc1 [Compound 9, (Z)-2-Oxo-2-((4-styrylphenyl)amino)acetic Acid]
- fold less potency compared to corresponding alkyne analogue (mPTPB [4]): 3 fold

Structure (SMILES): O=C(O)C(=O)Nc1ccc(/C=C\c2ccc(C(F)(F)F)cc2)cc1 [Compound 10, (Z)-2-Oxo-2-((4-(4-(trifluoromethyl)styryl)phenyl)amino)acetic Acid]
- fold less potency compared to corresponding alkyne analogue (mPTPB [4]): 45 fold

Structure (SMILES): O=C(O)C(=O)Nc1ccc(CCc2ccccc2)cc1 [Compound 11, 2-Oxo-2-((4-phenethylphenyl)amino)acetic Acid]
- fold less potency compared to corresponding alkyne analogue (mPTPB [4]): 5 fold

Structure (SMILES): O=C(O)C(=O)Nc1ccc(CCc2ccc(C(F)(F)F)cc2)cc1 [Compound 12, 2-Oxo-2-((4-(4-(trifluoromethyl)phenethyl)phenyl)amino)acetic Acid]
- fold less potency compared to corresponding alkyne analogue (mPTPB [4]): 13 fold
